Here are results for 24 compounds from the NIST ThermoML archive (doi:10.1021/je800355e).

The data set can be described thus: activity coefficient (dimensionless); of the first substance listed, at infinite dilution; xn = mol fraction of the nth substance listed. The conditions noted are these: 101 kPa, Liquid, x1 = 0.

Where “and” joins values, the source holds several entries; their conditions need not be identical. Identical values can stand only once. ± gives the expanded uncertainty stated by the source.

Turning to `CC(C)CO` [2-methyl-1-propanol] + CCCCCC[n+]1ccn(C)c1.O=S(=O)([N-]S(=O)(=O)C(F)(F)F)C(F)(F)F, the activity coefficient by setting is: (293.15 K, Chromatography) 2.39 and 2.44; (313.15 K, Chromatography) 1.88 and 1.87; (333.15 K, Chromatography) 1.49 and 1.52; (353.15 K, Chromatography) 1.3 ± 0.1.

Take `CC(C)CO` [2-methyl-1-propanol] + CCCCn1cc[n+](C)c1.COS(=O)(=O)[O-]: the activity coefficient was 1.44 ± 0.12 (298.15 K, Chromatography); 1.29 ± 0.11 (313.15 K, Chromatography); 1.28 ± 0.1 (333.15 K, Chromatography); 1.12 ± 0.09 (353.15 K, Chromatography).

Regarding `CC(C)CO` [2-methyl-1-propanol] + CCCCn1cc[n+](C)c1.F[P-](F)(F)(F)(F)F, the activity coefficient (293.15 K, Chromatography) is 8.39 ± 0.57; the activity coefficient (313.15 K, Chromatography) came to 5.74 ± 0.39; the activity coefficient (333.15 K, Chromatography) was 4.23 ± 0.29; the activity coefficient (353.15 K, Chromatography) was determined as 3.23 ± 0.22.

For `CC(C)(C)O` [2-methylpropan-2-ol] + CCCCCC[n+]1ccn(C)c1.O=S(=O)([N-]S(=O)(=O)C(F)(F)F)C(F)(F)F, the activity coefficient is, setting by setting: (293.15 K, Chromatography) 1.68 and 1.66; (313.15 K, Chromatography) 1.4 and 1.35; (333.15 K, Chromatography) 1.15 and 1.16; (353.15 K, Chromatography) 1.04 and 1.03.

As for `CC(C)(C)O` [2-methylpropan-2-ol] + CCCCn1cc[n+](C)c1.COS(=O)(=O)[O-], the activity coefficient was determined as 1.38 ± 0.11 (298.15 K, Chromatography); 1.27 ± 0.1 (313.15 K, Chromatography); 1.19 ± 0.1 (333.15 K, Chromatography); 1.22 ± 0.1 (353.15 K, Chromatography).

For `CC(C)(C)O` [2-methylpropan-2-ol] + CCCCn1cc[n+](C)c1.F[P-](F)(F)(F)(F)F, the activity coefficient runs as follows: (293.15 K, Chromatography) 4.83 ± 0.33; (313.15 K, Chromatography) 3.68 ± 0.25; (333.15 K, Chromatography) 2.97 ± 0.2; (353.15 K, Chromatography) 2.45 ± 0.17.

On to `CCCCO` [butan-1-ol] + CCCCCC[n+]1ccn(C)c1.O=S(=O)([N-]S(=O)(=O)C(F)(F)F)C(F)(F)F, for which the activity coefficient was found to be 2.5 ± 0.19 (293.15 K, Chromatography); 2.02 ± 0.16 (313.15 K, Chromatography); 1.63 ± 0.12 (333.15 K, Chromatography); 1.33 ± 0.1 (353.15 K, Chromatography).

In the case of `CCCCO` [butan-1-ol] + CCCCn1cc[n+](C)c1.COS(=O)(=O)[O-], the activity coefficient was found to be 1.68 ± 0.14 (298.15 K), 1.44 ± 0.11 (313.15 K), 1.37 ± 0.1 (333.15 K) and 1.21 ± 0.08 (353.15 K).

Take `CCCCO` [butan-1-ol] + CCCCn1cc[n+](C)c1.F[P-](F)(F)(F)(F)F: the activity coefficient (293.15 K, Chromatography) was determined as 8.17 ± 0.56; the activity coefficient (313.15 K, Chromatography) amounted to 5.9 ± 0.4; the activity coefficient (333.15 K, Chromatography) turned out to be 4.49 ± 0.31; the activity coefficient (353.15 K, Chromatography) was found to be 3.43 ± 0.23.

Regarding `CCC(C)O` (stereo unspecified) [butan-2-ol] + CCCCCC[n+]1ccn(C)c1.O=S(=O)([N-]S(=O)(=O)C(F)(F)F)C(F)(F)F, the activity coefficient is 2.03 ± 0.16 (293.15 K, Chromatography); 1.67 and 1.65 (313.15 K, Chromatography); 1.37 and 1.38 (333.15 K, Chromatography); 1.2 and 1.21 (353.15 K, Chromatography).

`CCC(C)O` (stereo unspecified) [butan-2-ol] + CCCCn1cc[n+](C)c1.COS(=O)(=O)[O-]: the activity coefficient is, setting by setting: (298.15 K, Chromatography) 1.45 ± 0.12; (313.15 K, Chromatography) 1.31 ± 0.11; (333.15 K, Chromatography) 1.27 ± 0.1; (353.15 K, Chromatography) 1.21 ± 0.1.

Consider `CCC(C)O` (stereo unspecified) [butan-2-ol] + CCCCn1cc[n+](C)c1.F[P-](F)(F)(F)(F)F, for which the activity coefficient runs as follows: (293.15 K, Chromatography) 6.47 ± 0.44; (313.15 K, Chromatography) 4.8 ± 0.33; (333.15 K, Chromatography) 3.69 ± 0.25; (353.15 K, Chromatography) 2.87 ± 0.2.

Regarding `CCO` [ethanol] + CCCCCC[n+]1ccn(C)c1.O=S(=O)([N-]S(=O)(=O)C(F)(F)F)C(F)(F)F, the activity coefficient is 1.85 and 1.82 (293.15 K, Chromatography); 1.49 and 1.47 (313.15 K, Chromatography); 1.24 and 1.23 (333.15 K, Chromatography); 1.05 and 1.03 (353.15 K, Chromatography).

Consider `CCO` [ethanol] + CCCCn1cc[n+](C)c1.COS(=O)(=O)[O-], for which the activity coefficient turned out to be 0.64 ± 0.05 (298.15 K, Chromatography); 0.61 ± 0.05 (313.15 K, Chromatography); 0.62 ± 0.05 (333.15 K, Chromatography); 0.59 ± 0.05 (353.15 K, Chromatography).

As to `CCO` [ethanol] + CCCCn1cc[n+](C)c1.F[P-](F)(F)(F)(F)F, the activity coefficient by setting is: (293.15 K, Chromatography) 3.81 ± 0.26; (313.15 K, Chromatography) 2.94 ± 0.2; (333.15 K, Chromatography) 2.32 ± 0.16; (353.15 K, Chromatography) 1.85 ± 0.12.

For `CO` [methanol] + CCCCCC[n+]1ccn(C)c1.O=S(=O)([N-]S(=O)(=O)C(F)(F)F)C(F)(F)F, the activity coefficient (293.15 K, Chromatography) is 1.54 and 1.5; the activity coefficient (313.15 K, Chromatography) is 1.27 and 1.26; the activity coefficient (333.15 K, Chromatography) is 1.08 and 1.05; the activity coefficient (353.15 K, Chromatography) is 0.93 and 0.91.

Consider `CO` [methanol] + CCCCn1cc[n+](C)c1.COS(=O)(=O)[O-], for which the activity coefficient is, setting by setting: (298.15 K, Chromatography) 0.39 ± 0.04; (313.15 K, Chromatography) 0.36 ± 0.04; (333.15 K, Chromatography) 0.33 ± 0.04; (353.15 K, Chromatography) 0.38 ± 0.04.

Consider `CO` [methanol] + CCCCn1cc[n+](C)c1.F[P-](F)(F)(F)(F)F, for which the activity coefficient reads like this: (293.15 K, Chromatography) 2.59 ± 0.18; (313.15 K, Chromatography) 2.06 ± 0.14; (333.15 K, Chromatography) 1.67 ± 0.11; (353.15 K, Chromatography) 1.36 ± 0.09.

Consider `CCCO` [propan-1-ol] + CCCCCC[n+]1ccn(C)c1.O=S(=O)([N-]S(=O)(=O)C(F)(F)F)C(F)(F)F, for which the activity coefficient was 2.08 and 2.09 (293.15 K, Chromatography); 1.68 and 1.65 (313.15 K, Chromatography); 1.38 ± 0.1 (333.15 K, Chromatography); 1.19 and 1.18 (353.15 K, Chromatography).

Turning to `CCCO` [propan-1-ol] + CCCCn1cc[n+](C)c1.COS(=O)(=O)[O-], the activity coefficient was found to be 0.96 ± 0.08 (298.15 K, Chromatography); 0.88 ± 0.07 (313.15 K, Chromatography); 0.89 ± 0.07 (333.15 K, Chromatography); 0.82 ± 0.07 (353.15 K, Chromatography).

`CCCO` [propan-1-ol] + CCCCn1cc[n+](C)c1.F[P-](F)(F)(F)(F)F: the activity coefficient runs as follows: (293.15 K, Chromatography) 5.53 ± 0.38; (313.15 K, Chromatography) 4.14 ± 0.28; (333.15 K, Chromatography) 3.18 ± 0.22; (353.15 K, Chromatography) 2.45 ± 0.17.

Turning to `CC(C)O` [propan-2-ol] + CCCCCC[n+]1ccn(C)c1.O=S(=O)([N-]S(=O)(=O)C(F)(F)F)C(F)(F)F, the activity coefficient (293.15 K, Chromatography) worked out at 1.95 ± 0.15; the activity coefficient (313.15 K, Chromatography) is 1.56 and 1.53; the activity coefficient (333.15 K, Chromatography) is 1.17 and 1.15; the activity coefficient (353.15 K, Chromatography) is 1.08 and 1.02.

For `CC(C)O` [propan-2-ol] + CCCCn1cc[n+](C)c1.COS(=O)(=O)[O-], the activity coefficient runs as follows: (298.15 K, Chromatography) 1.03 ± 0.08; (313.15 K, Chromatography) 0.94 ± 0.08; (333.15 K, Chromatography) 0.91 ± 0.07; (353.15 K, Chromatography) 0.88 ± 0.07.

Regarding `CC(C)O` [propan-2-ol] + CCCCn1cc[n+](C)c1.F[P-](F)(F)(F)(F)F, the activity coefficient reads like this: (293.15 K, Chromatography) 4.8 ± 0.33; (313.15 K, Chromatography) 3.64 ± 0.25; (333.15 K, Chromatography) 2.83 ± 0.19; (353.15 K, Chromatography) 2.25 ± 0.15.
